{"source": "patent US20110028401A1", "about": "“CRIPTO BLOCKING MOLECULES AND THERAPEUTIC USES THEREOF” (CONSIGLIO NAZIONALE DELLE RICERCHE, priority 2009, published 2011)", "key": {"wild-type EBs": {"system": "wild-type EBs", "assay": "Neuronal differentiation of wild-type EBs, βIII-tubulin immunofluorescence grades", "format": "cell-based, mouse", "conditions": "25 μM peptide, 13 day-old EBs, mean±SD", "protocol": "Undifferentiated ESCs were cultured as previously described^55.\nImmunofluorescence analysis on adherent EBs, dopaminergic differentiated ESC and striatal grafts were performed as previously described^29, 35. The following primary antibodies were used: mouse anti-βIII-tubulin (Tuj1, 1:1000, Promega); anti-βIII tubulin (Sigma; 1:400), rabbit anti-tyrosine hydroxylase (TH, 1:200, PelFreez); mouse anti-TH (1:500, Chemicon); Nurr-1 (1:250, Santa Cruz); rabbit anti-Pitx3 (1:200, InVitrogen), rabbit anti-GIRK-2 (1:100, Chemicon); rat anti-DAT (1:1000, Chemicon); rabbit anti-5HT (1:200, Biogenesis); rabbit anti-NET (1:20, Chemicon), rabbit anti-GABA (1:500, Sigma); rabbit anti-Ki67 (1:1000, Neomarkers); and rat anti-Nestin (1:100, Developmental Studies Hybridoma Bank). Appropriate fluorophore conjugated secondary antibodies were used for visualization: (Cyanin-2, Cy3 and Cy5, 1:500, Jackson ImmunoResearch or Alexa-488, Alexa-594 and Alexa-633, 1:200, Molecular Probes).\nThus, if specific and effective, Cripto BP should be able to re-direct ESC fate and promote neural induction and neurogenesis. To address this issue, 2 day-old wild-type EBs were treated as described above, with either control (CP), dimeric (DP) or blocking (BP) peptides and both morphological and immunofluorescence analysis were performed on 13 day-old EBs. […]"}, "R1 ESC": {"system": "R1 ESC", "assay": "Dopaminergic differentiation of ESCs on PA6 stromal cells", "format": "cell-based, mouse", "protocol": "For more specific dopaminergic differentiation, R1 ESC were plated on a confluent monolayer of mitomycin-C treated (2 hour, 20 ug/ml, Sigma) stromal PA6 cells (Riken Cell Bank) at a density of 100 cells/cm^2 and differentiated based on the methods of Barberi et al, 2003 with the following modifications, FIG. 7(a)^27. Cells were initially cultured in serum-replacement media (Dulbecco's modified Eagle medium with 15% serum replacement, 2 mM L-glutamine and 10 uM β-mercaptoethanol, Gibco-Invitrogen) containing Noggin (300 ng/ml, R&D Systems). After 5 days the media was replenished and supplemented with Noggin plus morphogens fibroblast growth factor-8 (FGF8, 100 ng/ml) and Sonic Hedgehog (Shh, 500 ng/ml), previously shown to be important in midbrain DA neuron development. At day 8, cultures were changed into N2 media (a 1:1 mixture of F12 and MEM with 15 mM HEPES buffer, 1 mM glutamine, 6 mg/ml glucose (Sigma-Aldrich), 3 mg/ml Albumax and N2 supplement (all purchased from Invitrogen)) supplemented with FGF2 (20 ng/ml), Shh, FGF8 and Wnt5a (previously shown to be important in the differentiation of dopaminergic precursors in vitro and in vivo^25, 56. Finally at day 11, cultures were exposed to survival factors brain derived neurotrophic factor (BDNF, 30 ng/ml), glial derived neurotrophic factor (GDNF, 30 ng/ml) and ascorbic acid (AA, 100 uM). In addition, peptides (Control peptide, CP; Dimer peptide, DP or Cripto Blocking peptide, Cripto BP, 12.5 uM) were added to the cultures from day 1-11. Peptides were replenished in the media every second day.\nHoescht counterstaining was used for visualization of all cells within the cultures. The proportion of neuron containing colonies (labeled for using the immature neuronal marker βIII-tubulin (Tuj1)) and the number of dopaminergic neurons/μm^2 colony (identified using a marker for the precursor enzyme in DA synthesis, TH) were counted. Differentiation experiments were performed in triplicate.\nThe authors next examined whether DA differentiation could be promoted. To this end, the authors used a DA differentiation protocol involving co-culturing on stromal cells^27, to which additional modifications were incorporated (FIG. 7a). In brief, ESCs were plated at low density onto stromal cells (PA6) for a period of 5 days, to promote neural induction. From day 0-8, cultures were treated with noggin to enhance neuronal induction. From day 8-11, cultures where changed into neuronal (N2) media in the presence of Shh and FGF-8 (for ventral midbrain patterning) and basic FGF (to expand the pool of DA precursors), as well as Wnt5a (involved in DA neuron differentiation in vitro and in vivo^25, 43). Control peptide (CP) or Cripto BP (BP) were added to the differentiating ESCs from day 1 to day 11. […]"}, "[1]": {"conditions": "peptide 12.5 uM day 1-11, 14 days on PA6"}}}
{"smiles": "C[S+]([O-])CCC(N)C(=O)N[C@@H](CSCc1ccccc1)C(=O)N[C@@H](CSCc1ccccc1)C(=O)N[C@@H](CCCCNC(=O)[C@H](CSCc1ccccc1)NC(=O)[C@H](CSCc1ccccc1)NC(=O)[C@@H](N)CC[S+](C)[O-])C(=O)N[C@@H](CCCCNC(=O)[C@H](CCCCNC(=O)[C@H](CSCc1ccccc1)NC(=O)[C@H](CSCc1ccccc1)NC(=O)[C@@H](N)CC[S+](C)[O-])NC(=O)[C@H](CSCc1ccccc1)NC(=O)[C@H](CSCc1ccccc1)NC(=O)[C@@H](N)CC[S+](C)[O-])C(=O)NCC(=O)O", "note": "(stereo partly drawn) [Cripto BP]", "values": [{"measurement": "EBs with Grade 0 phenotype (absence of neurons)", "setting": "wild-type EBs", "result": "17.4%±1.15"}, {"measurement": "EBs with Grade 3 phenotype (full neuronal differentiation)", "setting": "wild-type EBs", "result": "45.6%±5.2"}, {"measurement": "yield of DA neurons derived from wildtype ESCs", "setting": "R1 ESC; Noggin and Wnt5a in conjunction with Cripto BP", "result": "enhanced further"}, {"measurement": "DA neurons per TH-ir colony", "setting": "R1 ESC; peptide 12.5 uM day 1-11", "result": 286, "unit": "% greater than control"}, {"measurement": "colonies immunoreactive for βIII-tubulin", "setting": "R1 ESC; [1]", "result": 91, "unit": "%"}, {"measurement": "proportion of colonies containing TH-ir DA neurons", "setting": "R1 ESC; [1]", "result": 62, "unit": "%"}]}
